In patent publication US20020137023A1, “Methods and compositions for targeting compounds to muscle” (Auburn University, priority 1997, published 2002):

Key:
Assay in all cases: in vivo phage display selection, frequency of selected clone
cardiac muscle [1] = test system: cardiac muscle; set-up: species or system dog; conditions: for FREQUENCY (of selected phage clone among clones sequenced): 3 in vivo rounds in cardiac muscle, dog
Method: (§1) In round one of selection, the phage library is injected intravenously and multiple tissues may be recovered. In subsequent rounds, the phage purified from specific tissues recovered in round one is injected intravenously, and thus, only that tissue is recovered. In rounds 2-4, separate animals are needed for each tissue being examined. After the last round, the phages are plated on a lawn of bacteria and a number of phage plaques are isolated and the DNA sequenced. Of these a certain percentage will represent the dominant selected clone. FIG. 2 provides a scheme for selection of tissue specific phage.
(§2) In the Table, “Four rounds of selection . . . ,” means that in round 1, the phage library was injected intravenously, and a specific tissue was recovered. In round 1, multiple tissues are recovered from one animal (skeletal muscle, cardiac muscle, etc.). In any subsequent round, the phage purified from a specific tissue is injected intravenously, and only that tissue is recovered. Thus, in rounds 2-4, separate animals are needed for each tissue being examined. After the last round, the phage are plated on a lawn of bacteria and a number of phage plaques are isolated and the DNA sequenced. This is represented in the Table by “number of phage clones sequenced.” Of these, a certain percentage will represent the dominant selected clone.
(§3) The experiments disclosed herein, represent the first in vivo selection in any species other than mouse. Generally, phage was left to circulate for one hour.

skeletal muscle = test system: skeletal muscle
Method: as §1, §2, §3

neuro muscular tissue = conditions: 4 in vivo rounds in neural muscular tissue; mouse
Method: as §1, §2, §3

murine muscle = test system: murine muscle; set-up: species or system mouse; conditions: four rounds in vivo
Method: as §1
In the Table, “Four rounds of selection . . . ,” means that in round 1, the phage library was injected intravenously, and a specific tissue was recovered. In round 1, multiple tissues are recovered from one animal (skeletal muscle, cardiac muscle, etc.). In any subsequent round, the phage purified from a specific tissue is injected intravenously, and only that tissue is recovered. Thus, in rounds 2-4, separate animals are needed for each tissue being examined. After the last round, the phage are plated on a lawn of bacteria and a number of phage plaques are isolated and the DNA sequenced. This is represented in the Table by “number of phage clones sequenced.” Of these, a certain percentage will represent the dominant selected clone. […]

cardiac muscle [2] = conditions: mouse
Method: as §1, §2, §3

[3] = 4 in vivo rounds in skeletal muscle, mouse
[4] = 4 in vivo rounds in cardiac muscle

Question: With “APVHRPL (Phage display library peptides) [peptide selected via two rounds in vivo, in canine cardiac muscle]” as the substance, how does the “fraction in which the selected clone was found” value (cardiac muscle [1]; two rounds in vivo, in canine cardiac muscle) read?
Answer: found in the washed tissue fraction

Question: For “ASSLNIA (Phage display library peptides) [Ala-Ser-Ser-Leu-Asn-Ile-Ala]”, which “FREQUENCY (of selected phage clone among clones sequenced)” value (skeletal muscle; 3 in vitro rounds on C2C12 myotubes followed by 2 in vivo rounds on skeletal muscle, mouse) is on record?
Answer: 40%

Question: “CGHHPVYAC (Phage display library peptides) [Cys-Gly-His-His-Pro-Val-Tyr-Ala-Cys]” was tested. Which “FREQUENCY (of selected phage clone among clones sequenced)” value (skeletal muscle; tissue skeletal muscle, dog) did it give?
Answer: 100%

Question: And the “FREQUENCY (of selected phage clone among clones sequenced)” value (cardiac muscle [1])?
Answer: 20%

Question: Which results are given for “GETRAPL (Phage display library peptides) [Gly-Glu-Thr-Arg-Ala-Pro-Leu]”?
Answer: FREQUENCY (of selected phage clone among clones sequenced) (neuro muscular tissue): 12%; FREQUENCY (of selected phage clone among clones sequenced) (skeletal muscle; [3]): 37%

Question: With “HAIYPRH (Phage display library peptides) [peptide selected via four rounds in vivo, in murine muscle]” as the substance, how does the “frequency of selected clone” value (murine muscle) read?
Answer: 4%

Question: “HVHTLPT (Phage display library peptides) [His-Val-His-Thr-Leu-Pro-Thr]” was tested. Which “FREQUENCY (of selected phage clone among clones sequenced)” value (cardiac muscle [2]; [4]) did it give?
Answer: 11%

Question: For “KAPLTPV (Phage display library peptides) [peptide selected by 3 in vivo phage rounds in dog cardiac muscle]”, which “FREQUENCY (of selected phage clone among clones sequenced)” value (cardiac muscle [1]) is on record?
Answer: 8%

Question: “MHHTRFY (Phage display library peptides) [Met-His-His-Thr-Arg-Phe-Tyr]” was tested. Which “FREQUENCY (of selected phage clone among clones sequenced)” value (cardiac muscle [2]; [4]) did it give?
Answer: 8%

Question: Which “FREQUENCY (of selected phage clone among clones sequenced)” value (cardiac muscle [2]; 3 in vivo rounds in cardiac muscle) does the source give for “QWHGPLH (Phage display library peptides) [Gln-Trp-His-Gly-Pro-Leu-His]” here?
Answer: 20%

Question: With “SGTLFAN (Phage display library peptides) [peptide selected by 3 in vivo phage rounds in dog cardiac muscle]” as the substance, how does the “FREQUENCY (of selected phage clone among clones sequenced)” value (cardiac muscle [1]) read?
Answer: 28%

Question: With “WDANGKT (Phage display library peptides) [Trp-Asp-Ala-Asn-Gly-Lys-Thr]” as the substance, how does the “FREQUENCY (of selected phage clone among clones sequenced)” value (skeletal muscle; 2 in vitro on C2C12 myotubes followed by 2 in vivo rounds on skeletal muscle, mouse + dog) read?
Answer: 10%

Question: What about the “FREQUENCY (of selected phage clone among clones sequenced)” value (skeletal muscle; [3]) of the same substance?
Answer: 19%
